Data from US5561112A, “Pseudopeptide isosteres of gly-asp and their use as antithrombic agents” (Sandoz Ltd., priority 1992, dated 1996).
Read-outs that look alike come from different tables or passages of the source.

Legend:
GP IIb/IIIa = biological target: T1, GP IIb/IIIa (Homo sapiens, UniProt P05106+P08514); test: Inhibition of binding of fibrinogen to isolated and immobilized GP IIb/IIIa (FB); conditions: biotin-labelled fibrinogen; GP IIb/IIIa isolated from human blood platelet membranes, bonded to microtitre plates; read-out: FB: IC50 (inhibition of the fibrinogen GPIIb/IIIa binding)
T1 construct: GP IIb/IIIa is isolated from membranes of human blood platelets by triton X-100 extraction; from tissue; host or cells: human blood platelets (membranes)
T1 sequence (P08514 32-887 limits assumed): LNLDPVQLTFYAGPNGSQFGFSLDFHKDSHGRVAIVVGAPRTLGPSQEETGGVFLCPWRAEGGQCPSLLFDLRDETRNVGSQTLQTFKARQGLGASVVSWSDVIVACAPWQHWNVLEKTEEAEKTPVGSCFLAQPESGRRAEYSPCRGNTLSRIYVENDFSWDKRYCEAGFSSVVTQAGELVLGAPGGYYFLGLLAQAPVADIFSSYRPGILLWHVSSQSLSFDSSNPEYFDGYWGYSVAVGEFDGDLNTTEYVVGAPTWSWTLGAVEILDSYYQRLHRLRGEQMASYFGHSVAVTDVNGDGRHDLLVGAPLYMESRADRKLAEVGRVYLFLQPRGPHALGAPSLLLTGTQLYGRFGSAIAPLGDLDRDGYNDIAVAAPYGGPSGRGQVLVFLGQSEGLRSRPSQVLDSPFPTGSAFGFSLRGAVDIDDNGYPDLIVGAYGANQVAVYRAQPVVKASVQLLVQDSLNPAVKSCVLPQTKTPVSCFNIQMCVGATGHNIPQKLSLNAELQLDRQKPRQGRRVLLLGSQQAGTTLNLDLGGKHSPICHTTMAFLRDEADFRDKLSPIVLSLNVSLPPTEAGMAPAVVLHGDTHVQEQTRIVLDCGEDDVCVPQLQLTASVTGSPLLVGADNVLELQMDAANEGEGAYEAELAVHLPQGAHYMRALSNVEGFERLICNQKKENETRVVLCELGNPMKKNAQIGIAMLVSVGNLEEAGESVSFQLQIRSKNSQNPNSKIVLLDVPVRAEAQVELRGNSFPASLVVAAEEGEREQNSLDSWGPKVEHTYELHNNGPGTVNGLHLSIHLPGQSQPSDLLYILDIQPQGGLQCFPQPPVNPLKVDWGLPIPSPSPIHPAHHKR
T1 sequence (P05106 27-788): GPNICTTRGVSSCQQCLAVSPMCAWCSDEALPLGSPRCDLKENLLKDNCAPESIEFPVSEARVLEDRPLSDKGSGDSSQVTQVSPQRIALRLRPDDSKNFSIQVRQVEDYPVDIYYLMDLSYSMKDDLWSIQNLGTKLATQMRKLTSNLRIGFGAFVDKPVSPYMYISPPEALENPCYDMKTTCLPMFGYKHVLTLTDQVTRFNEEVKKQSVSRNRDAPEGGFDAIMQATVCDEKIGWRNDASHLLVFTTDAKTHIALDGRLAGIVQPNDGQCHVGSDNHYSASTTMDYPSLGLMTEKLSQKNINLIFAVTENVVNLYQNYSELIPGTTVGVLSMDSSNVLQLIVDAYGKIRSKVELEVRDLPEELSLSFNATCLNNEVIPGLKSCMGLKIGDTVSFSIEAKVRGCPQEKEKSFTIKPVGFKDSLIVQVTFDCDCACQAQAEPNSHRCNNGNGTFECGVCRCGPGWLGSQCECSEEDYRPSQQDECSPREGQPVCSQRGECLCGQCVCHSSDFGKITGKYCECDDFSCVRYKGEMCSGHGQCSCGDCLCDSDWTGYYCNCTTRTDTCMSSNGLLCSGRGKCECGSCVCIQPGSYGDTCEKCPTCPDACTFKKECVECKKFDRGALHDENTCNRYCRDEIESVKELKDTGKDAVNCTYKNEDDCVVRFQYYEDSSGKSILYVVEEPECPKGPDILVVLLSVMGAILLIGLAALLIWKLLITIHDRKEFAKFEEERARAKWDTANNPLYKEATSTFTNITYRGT
From the text: a) Inhibition of binding of fibrinogen to isolated and immobilized GP IIb/IIIa: GP IIb/IIIa is isolated from membranes of human blood platelets by triton X-100 extraction and purified by chromatography on ion exchangers and by gel filtration. The receptor protein thus obtained is bonded to microtitre plates. The inhibition of the binding of biotin-labelled fibrinogen to the receptor in the presence of inhibitor is quantified.
The compounds of formula I effect an inhibition of the fibrinogen GP IIb/IIIa binding in a range of IC50 (concentration of compounds of formula I which reduce the binding of fibrinogen to the receptor by 50%) of between 0.5 and 20 nM.
(§1) The compounds of Examples 1 to 8 are tested to determine their IC50 values in the inhibition of the fibrinogen GPIIb/IIIa binding (FB) and inhibition of the ADP-induced platelet aggregation (PA) test procedures described above.

human blood platelets = test: Inhibition of the ADP-induced aggregation of human blood platelets in the presence of fibrinogen (PA); assay type: cell-based; conditions: washed human platelets, stimulated with ADP in the presence of fibrinogen, aggregometer
Procedure: b) Inhibition of the ADP-induced aggregation of human blood platelets in the presence of fibrinogen: Blood platelets are isolated from fresh whole-blood by centrifugation, and washed. The washed platelets are resuspended in the presence of PGI2 and apyrase and stimulated with ADP ([…]) in the presence of fibrinogen. The ability of the platelets to aggregate in the presence or absence of inhibitors is quantified using an aggregometer.
The inhibition of the ADP-induced platelet aggregation is brought about by compounds of formula I in a range of IC50 (concentration of compounds of formula I at which 50% of platelet aggregation is inhibited) of between 20 and 100 nM.
as §1

[1] = read-out: PA: IC50 (inhibition of the ADP-induced platelet aggregation)

Row | SMILES | IC50 (GP IIb/IIIa) [µM] | IC50 (human blood platelets; Platelet) [µM] | IC50 (human blood platelets; [1]) [µM]
1 | Cc1ccc(S(=O)(=O)N[C@@H](CCCNC(=O)Cc2ccc(C(=N)N)cc2)CC(=O)O)cc1 [Example 1, (S)-3-(N-tosylamino)-6-[N-(p-amidinophenylacetyl)amino]hexanoic acid] | 0.0076 | 0.64 | –
2 | CC(C)CC(=O)N[C@@H](CCCNC(=O)Cc1ccc(C(=N)N)cc1)CC(=O)O [Example 2, (S)-3-[N-(3-methylbutyryl)amino]-6-[N-(p-amidinophenylacetyl)amino]hexanoicacid] | 0.0017 | 0.1 | –
3 | COc1ccc(CCC(=O)N[C@@H](CCCNC(=O)Cc2ccc(C(=N)N)cc2)CC(=O)O)cc1 [Example 3, (S)-3-N-[3-(p-methoxyphenyl)propionyl]amino-6-[N-(p-amidinophenylacetyl)amino]hexanoic acid] | 0.0011 | – | 0.031
4 | N=C(N)c1ccc(CC(=O)NCCC[C@@H](CC(=O)O)NC(=O)CC23CC4CC(CC(C4)C2)C3)cc1 [Example 4, (S)-3-[N-(adamant-1-ylacetyl)amino]-6-[N-(p-amidinophenylacetyl)amino]hexanoic acid] | 0.0022 | 0.067 | –
5 | N=C(N)c1ccc(CC(=O)NCCC[C@@H](CC(=O)O)NC(=O)CCC23CC4CC(CC(C4)C2)C3)cc1 [Example 5, (S)-3-[N-(3-adamant-1-ylpropionyl)amino]-6-[N-(p-amidinophenylacetyl)amino]hexanoic acid] | 0.0004 | 0.061 | –
6 | CC(C)CC(=O)N[C@@H](CCCCNC(=O)c1ccc(C(=N)N)cc1)CC(=O)O [Example 6, (S)-3-(N-(3-methylbutyryl)amino]-7-[N-(p-amidinobenzoyl)amino]heptanoic acid] | 0.0005 | 0.015 | –
7 | COc1ccc(CCC(=O)N[C@@H]2CC(=O)O[C@H](CNC(=O)Cc3ccc(C(=N)N)cc3)C2)cc1 [Example 7, (3S,5S)-6-(4-amidinophenylacetylamino)-5-hydroxy-3-(4-methoxyphenylpropionylamino)-hexanoic acid-δ-lactone] | 0.0005 | – | 0.08
8 | CC(C)CC(=O)N[C@@H]1CC(=O)O[C@H](CNC(=O)Cc2ccc(C(=N)N)cc2)C1 [Example 8, (3S,5S)-6-(4-amidino-phenylacetylamino)-5-hydroxy-3-(3-methyl-butyrylamino)-hexanoic acid-δ-lactone] | 0.0009 | – | 0.11
